Measurements published in patent US20060019890A1, “Method for treating cardiac remodeling following myocardial injury” (priority 2004, published 2006).

Assays:
ERK = assay: Western analysis of ERK phosphorylation; type: cell-based, human; settings: 15 min; for effect on BNP induced ERK phosphorylation: KT5823 1 μmol/L or U0126 10 μmol/L
Description: (§1) Lysis was induced with 0.2 ml of buffer containing 20 mM Tris-HCL, pH 7.9, 137 mM NaCl, 1% Triton X-100, 5 mM EDTA, 10 mM NaF, 1 mM β-glycerophosphate, and protease inhibitor cocktail. The protein concentration of each lysate was measured using coomassie protein reagent from PIERCE. Twenty μg of protein from each sample was loaded and electrophoresed on 4-12% gradient polyacrylamide gels and electrophoretically transferred to nitrocellulose membranes (Invitrogen, San Diego, Calif.). The membranes were incubated with rabbit anti-human Collagen 1 antibody (Cortex Biochem, San Leandro, Calif.), HRP-conjugated anti-human Fibronectin antibody, or goat anti-Actin antibody (Santa Cruz Biotehnology, Santa Cruz, Calif.) in TBST buffer containing 20 mM Tris-HCl, pH 7.5, 150 mM NaCl, 0.1% Tween-20, and 5% nonfat dried milk at 4° C. for ˜16 h. For ERK phosphorylation, cells were treated with 0.5 μmol/L BNP in the presence of 1 μmol/L KT5823 or 10 μmol/L U0126 for 15 min; the membranes were incubated with rabbit anti-human phospho-ERK ½ antibody or rabbit anti-human ERK ½ antibody (Cell Signaling, Beverly, Mass.). For secondary antibody detection, membranes were incubated with HRP-conjugated anti-rabbit antibody or anti-goat antibody at room temperature for 1 h and washed 3 times with TBST buffer. The blots were soaked in ECL Plus reagent for 5 min and exposed to KODAK x-ray film. Signals were identified and quantified using a Typhoon Scanner and Densitometer from Amersham Biosciences (Piscataway, N.J.). Data was analyzed by ANOVA using the Newman-Keuls test to assess significance. Results cGMP Production in Cardiac Fibroblasts

acute myocardial injury [1] = assay: Cardiac function (Millar pressure volume conductance system) in L-NAME/AngII acute myocardial injury model; type: in vivo, rat; settings: L-NAME/AngII rats
Description: (§2) In a related study, an in vivo model for acute myocardial injury was used to explore the effects of BNP. Male Sprague Dawley rats ranging in weight from 225 to 250 gm were utilized. Acute myocardial injury was induced by administration of Nω-nitro-L-arginine methyl ester (L-NAME, 40 mg/kg/day)salt (1% NaCl) plus angiotensin II (AngII, 0.5 mg/kg/day) in the rats. The L-NAME was administered in drinking water from day 1 to day 14. Angiotensin II was continuously infused subcutaneously with an osmotic pump from day 11 to day 14. Rat BNP ([…]) was intravenously infused through an external infusion pump from day 10 to day 14.
(§3) Systolic blood pressure, plasma level of aldosterone, cardiac function heart/body weight ration and gene expression in the heart were analyzed. Systolic blood pressure was monitored via tail cuff technique with an IITC blood pressure recording system. Cardiac function was monitored via a Millar ARIA Pressure Volume Conductance System with an 1.4 F catheter. Gene expression as referenced above with results provided in FIG. 12 were monitored by RT-PCR with an ABI Prism™ 7700 sequence detection system.

acute myocardial injury [2] = assay: Heart/body weight ratio in L-NAME/AngII acute myocardial injury model; type: in vivo; settings: L-NAME/AngII rats, rat BNP i.v. infusion day 10 to day 14
Description: as §2, §3

[3] = Plasma level of aldosterone in L-NAME/AngII acute myocardial injury model; type: in vivo; settings: L-NAME/AngII rats, rat BNP i.v. infusion day 10 to day 14
Description: as §2, §3

[4] = test system: human cardiac fibroblasts; assay: Real-time RT-PCR gene expression in cardiac fibroblasts; type: cell-based; settings: for ACTA2 expression level relative to control / CTGF expression level relative to control / Collagen 1 expression level relative to control / Fibronectin expression level relative to control / IL6 expression level relative to control / IL11 expression level relative to control / PTGS2/COX-2 expression level relative to control / SERPINE1/PAI-1 expression level relative to control / TIMP3 expression level relative to control: normalized to 18s RNA; for effect on BNP inhibition of TGFβ-induced Collagen-1 expression, real-time RT-PCR: U0126 0.1-10 μmol/L, PD98059 10 μmol/L
Description: Real-time RT-PCR^18 was performed in a two-step manner. cDNA synthesis and real-time detection were carried out in a PTC-100™ Thermal Cycler (MJ Research Inc, Waltham, Mass.) and an ABI Prism™ 7700 Sequence Detection System (Applied Biosystems, Foster City, Calif.), respectively. Random hexamers (Qiagen, Valencia, Calif.) were used to generate cDNA from 200 ng RNA as described in Applied Biosystems User Bulletin #2. TaqMan™ PCR Core Reagent Kit or TaqMan™ Universal PCR Master Mix (Applied Biosystems) were used in subsequent PCR reactions according to the manufacturer's protocols. Relative quantitation of gene expression was performed using the relative standard curve method. All real-time RT-PCR reactions were performed in triplicate.
Sequence specific primers and probes were designed using Primer Express Version 2 software (Applied Biosystems). Sequences of primers and probes can be found in Table 1 below. Expression levels were normalized to 18S rRNA. The selection of 18S rRNA as an endogenous control was based on an evaluation of the ΔCT levels (Applied Biosystems document # 4308134C) of 6 “housekeeping” genes: Cyclophilin A, 18S, GAPDH, β-actin, β-Glucuronidase, and Hypoxanthine Guanine Phosphoribosyl Transferase.

[5] = test system: human cardiac fibroblasts; assay: cDNA microarray gene expression profiling of TGFβ- and/or BNP-treated cardiac fibroblasts
Description: Two lots of primary human cardiac fibroblasts, derived from a person (lot 1) and a person (lot 2), were provided by Cambrex Bio Science (Walkersville, Md.). Cells stained positive for α-smooth muscle actin and vimenfin antibodies corroborating their identity as cardiac fibroblasts and myofibroblasts. Both lots were used for the real-time RT-PCR studies; lot 1 was used for the microarray analysis. Cells at passage 3-5 were cultured in FGM containing 15% FBS. At confluence, cells were split and cultured in 6-well plates for 24 h.
Gene expression profiles were determined from cDNA microarrays containing 8,600 elements derived from clones isolated from normalized cDNA libraries or purchased from ResGen (Invitrogen Life Technologies, Carlsbad, Calif.). DNA for spotting was generated by PCR amplification using 5′amino-modified primers (BD Biosciences Clontech, Palo Alto, Calif.) derived from flanking vector sequences. Amplified DNA was purified in a 96-well format using Qiagen's Qiaquick columns (Valencia, Calif.) according to the manufacturer's recommendations. Samples were eluted in Milli-Q purified water, dried to completion and resuspended in 7 μl of 3×SSC. A fluorescent assay using PicoGreen (Molecular Probes, Eugene, Oreg.) was randomly performed on 12% of the PCR products to determine the average yield after purification; yields were ˜1.5 μg of DNA which corresponds to a concentration of 214 μg/ml. Purified DNA was arrayed from 384-well microtiter plates onto lysine-coated glass slides using an OmniGrid II microarrayer (GeneMachines, San Carlos, Calif.). After printing, DNA was cross-linked to the glass with 65 mjoules UV irradiation and reactive amines were blocked by treatment with succinic anhydride.
Total RNA was extracted from cells using Qiagen's RNeasy kit; two wells from a 6 well plate were pooled to yield a total of 4×10^5 cells per treatment. RNA was amplified using a modified Eberwine protocol^5 that incorporated a polyA tail into the amplified RNA. Fluorescently-labeled cDNA probes were generated by reverse transcription of 4 μg of RNA with SuperScript II (Invitrogen Life Technologies, Carlsbad, Calif.) using anchored dT primers in the presence of Cy3 or Cy5 dUTP (Amersham, Piscataway, N.J.). Labeled cDNA probe pairs were precipitated with ethanol and purified using Qiaquick columns. Twenty μg each of poly(A) DNA, yeast tRNA, and human Cot1 DNA (Applied Genetics, Melbourne, Fla.) was added to the eluant. The samples were dried to completion and resuspended in 12.5 μl 3×SSC, 0.1% SDS. Probes were heated to 95° C. for 5 minutes, applied to the arrays under a 22 mm^2 cover slip and allowed to hybridize for at least 16 h at 65° C. The arrays were washed at 55° C. for 10 minutes in 2×SSC, 0.1% SDS, followed by two washes at room temperature in 1×SSC (10 min) and 0.2×SSC (15 min). Hybridization of each fluorophore was quantified using an Axon GenePix 4000A scanner.
Differential expression values were expressed as the ratio of the median of background-subtracted fluorescent intensity of the experimental RNA to the median of background-subtracted fluorescent intensity of the control RNA. For ratios greater than or equal to 1.0, the ratio was expressed as a positive value. For ratios less than 1.0, the ratio was expressed as the negative reciprocal (i.e., a ratio of 0.5=−2.0). Median ratios were normalized to 1.0 using two pools of 3000 randomly chosen cDNAs in each pool. Six replicates of each of the two pools were printed in 4 evenly distributed blocks of the array. Expression data was rejected if neither channel produced a signal of at least 2.0-fold over background. Differential expression ratios were determined as the mean of the two values from dye-swapped duplicates.

acute myocardial injury [6] = assay: Gene expression in the heart by RT-PCR in L-NAME/AngII acute myocardial injury model; type: in vivo, rat; settings: stimulated by L-NAME plus angiotensin II
Description: In a related study, a gene microassay profile of rat heart tissue was conducted. Fibrotic and extracellular matrix associated genes were stimulated in vivo by L-NAME plus angiotensin II.
as §2, §3

[7] = Degradation of added BNP in cardiac fibroblast culture (immunoreactive assays and cGMP stimulation cell bioassays); type: in vitro ADME; settings: human, primary human cardiac fibroblasts in culture, within 24 h, read-out: added BNP metabolized
Description: Two lots of primary human cardiac fibroblasts, derived from a person (lot 1) and a person (lot 2), were provided by Cambrex Bio Science (Walkersville, Md.). […] Cells at passage 3-5 were cultured in FGM containing 15% FBS. At confluence, cells were split and cultured in 6-well plates for 24 h.

[8] = test system: human cardiac fibroblasts; assay: Western blot analysis of Collagen 1 and Fibronectin protein; type: cell-based; settings: 48 h; for effect on BNP inhibition of TGFβ-induced Collagen-1 expression, Western blot: U0126 0.1-10 μmol/L, PD98059 10 μmol/L
Description: as §1

acute myocardial injury [9] = assay: Systolic blood pressure (tail cuff) in L-NAME/AngII acute myocardial injury model; type: in vivo; settings: rat BNP i.v. infusion day 10 to day 14
Description: as §2, §3

[10] = rat BNP i.v. infusion day 10 to day 14
[11] = TGFβ-stimulated cells, microarray

## CC[C@H](C)[C@@H]1NC(=O)[C@H](CCCNC(=N)N)NC(=O)[C@H](CC(=O)O)NC(=O)[C@H](CCSC)NC(=O)[C@H](CCCCN)NC(=O)[C@H](CCCNC(=N)N)NC(=O)CNC(=O)[C@H](Cc2ccccc2)NC(=O)[C@@H](NC(=O)CNC(=O)[C@H](CO)NC(=O)CNC(=O)[C@H](CCC(N)=O)NC(=O)[C@@H](NC(=O)[C@H](CCSC)NC(=O)[C@H](CCCCN)NC(=O)[C@@H]2CCCN2C(=O)[C@@H](N)CO)C(C)C)CSSC[C@@H](C(=O)N[C@@H](CCCCN)C(=O)N[C@H](C(=O)N[C@@H](CC(C)C)C(=O)N[C@@H](CCCNC(=N)N)C(=O)N[C@@H](CCCNC(=N)N)C(=O)N[C@@H](Cc2c[nH]cn2)C(=O)O)C(C)C)NC(=O)CNC(=O)[C@H](CC(C)C)NC(=O)CNC(=O)[C@H](CO)NC(=O)[C@H](CO)NC(=O)[C@H](CO)NC(=O)[C@H](CO)NC1=O [BNP, brain natriuretic peptide]
ERK; BNP 0.5 μmol/L
  ERK phosphorylation: activates ERK
Acute myocardial injury [1]
  effect on cardiac output: increases
  effect on heart rate: no effect
  effect on maximum dP/dt: increased
  effect on minimum dP/dt: increased
Acute myocardial injury [1]; [10]
  arterial elastance: 42.6±5.1 mmHg/ul
  diastolic volume: 22.4 ± 1.1 µL
  ejection fraction: 20.4±2.4%
  stroke volume: 4.74 ± 0.73 µL
  stroke work: 531.5±99.1 mmH*ul
Acute myocardial injury [2]
  heart/body weigh ratio: 0.0029±0.001
[3]
  plasma aldosterone: 6.6 ± 0.16 ng/mL
[4]; 6, 24 and 48 h
  effect on TGFβ induction of Collagen 1 mRNA levels: blocked
[4]; 6 h, lot 1
  ACTA2 expression level relative to control: 0.8 ± 0.12
  CTGF expression level relative to control: 0.9 ± 0.24
  Collagen 1 expression level relative to control: 1.0 ± 0.05
  Fibronectin expression level relative to control: 0.9 ± 0.19
  IL6 expression level relative to control: 0.9 ± 0.02
  IL11 expression level relative to control: 1.1 ± 0.04
  PTGS2/COX-2 expression level relative to control: 1.2 ± 0.22
  SERPINE1/PAI-1 expression level relative to control: 0.7 ± 0.08
  TIMP3 expression level relative to control: 0.9 ± 0.11
[4]; 24 h, lot 1
  ACTA2 expression level relative to control: 0.9 ± 0.11
  CTGF expression level relative to control: 1.0 ± 0.29
  Collagen 1 expression level relative to control: 1.1 ± 0.13
  Fibronectin expression level relative to control: 1.0 ± 0.10
  IL6 expression level relative to control: 0.9 ± 0.21
  PTGS2/COX-2 expression level relative to control: 1.2 ± 0.38
  SERPINE1/PAI-1 expression level relative to control: 0.7 ± 0.01
  TIMP3 expression level relative to control: 1.0 ± 0.12
[4]; 24 h, lot 2
  ACTA2 expression level relative to control: 0.9 ± 0.25
  Fibronectin expression level relative to control: 0.9 ± 0.24
  IL6 expression level relative to control: 0.9 ± 0.07
  IL11 expression level relative to control: 1.0 ± 0.05
  SERPINE1/PAI-1 expression level relative to control: 0.7 ± 0.11
  TIMP3 expression level relative to control: 0.7 ± 0.09
[4]; 48 h
  effect on TGFβ-induced Fibronectin mRNA expression: inhibited
[4]; 48 h, lot 1
  ACTA2 expression level relative to control: 1.0 ± 0.03
  Collagen 1 expression level relative to control: 1.2 ± 0.03
  Fibronectin expression level relative to control: 1.1 ± 0.04
  IL6 expression level relative to control: 0.9 ± 0.03
  IL11 expression level relative to control: 0.7 ± 0.10
  PTGS2/COX-2 expression level relative to control: 1.0 ± 0.12
  SERPINE1/PAI-1 expression level relative to control: 0.9 ± 0.00
  TIMP3 expression level relative to control: 0.9 ± 0.00
[4]; 48 h, lot 2
  ACTA2 expression level relative to control: 0.7 ± 0.11
  Collagen 1 expression level relative to control: 1.0 ± 0.01
  Fibronectin expression level relative to control: 1.0 ± 0.11
  IL6 expression level relative to control: 0.9 ± 0.06
  IL11 expression level relative to control: 0.8 ± 0.09
  PTGS2/COX-2 expression level relative to control: 1.0 ± 0.06
  SERPINE1/PAI-1 expression level relative to control: 0.8 ± 0.03
  TIMP3 expression level relative to control: 0.6 ± 0.00
[5]; 24 h
  TGFβ-regulated gene expression events opposed: ~88%
[5]; 48 h
  TGFβ-regulated gene expression events opposed: ~85%
[5]; [11]
  effect on TGFβ-induction of PTGS2 (COX2), TNFAIP6 and TNFSF4: reversed
  effect on TGFβ-regulated cell proliferation genes (PDGFA, IGFBP10, IGF1, PTHLH, CDC25B, CUL5): opposed
  effect on fibrosis and ECM gene cluster up-regulated by TGFβ: down-regulated
[5]; microarray, 24 and 48 h
  effect on gene expression in unstimulated human cardiac fibroblasts: no significant effects
Acute myocardial injury [6]
  mRNA expression for collagen I in rat heart: markedly reduced
  mRNA expression for collagen III in rat heart: markedly reduced
  mRNA expression for fibronectin in rat heart: markedly reduced
[7]
  metabolised at 24 h: 50%
[8]
  effect on TGFβ-induced Fibronectin protein expression: inhibited
  inhibition of TGFβ-stimulated Collagen 1 protein synthesis: ~75%
Acute myocardial injury [9]
  effect on systolic blood pressure raised by L-NAME+AngII: no effect

## COC(=O)[C@@]1(OC)C[C@H]2O[C@]1(C)n1c3ccccc3c3c4c(c5c6ccccc6n2c5c31)C(=O)N(C)C4 [KT5823]
ERK
  effect on BNP induced ERK phosphorylation: completely blocked

## COc1cccc(-c2cc(=O)c3ccccc3o2)c1N [PD98059]
[4]; 48 h
  effect on BNP inhibition of TGFβ-induced Collagen-1 expression, real-time RT-PCR: reversed
[8]
  effect on BNP inhibition of TGFβ-induced Collagen-1 expression, Western blot: reversed

## N#CC(=C(/N)Sc1ccccc1N)/C(C#N)=C(\N)Sc1ccccc1N [U0126]
ERK
  effect on BNP induced ERK phosphorylation: completely blocked
[4]; 48 h
  effect on BNP inhibition of TGFβ-induced Collagen-1 expression, real-time RT-PCR: reversed
[8]
  effect on BNP inhibition of TGFβ-induced Collagen-1 expression, Western blot: reversed
